Laboratory results as given in ChEMBL document CHEMBL1146391, “Antifungal diterpenoid alkaloids from Delphinium denudatum” (1997).
Converted amounts (≈) assume the structure as drawn. The source made the active and inactive calls. The calls are words filed in the database; no cut-off is given here.

Tests used:
Pleurotus ostreatus = test: Antifungal activity against Pleurotus ostreatus after 7 days by agar tube dilution method; type: functional; details: 168 h
Epidermophyton floccosum = test: Antifungal activity against Epidermophyton floccosum after 7 days by agar tube dilution method; type: functional; details: 168 h
Scedosporium boydii = test: Antifungal activity against Allescheria boydii after 7 days by agar tube dilution method; type: functional; details: 168 h
Aspergillus niger = test: Antifungal activity against Aspergillus niger after 7 days by agar tube dilution method; type: functional; details: 168 h
[1] = Antifungal activity against Dutarium rotatum after 7 days by agar tube dilution method; type: functional
Stachybotrys chartarum = test: Antifungal activity against Stachybotrys atra after 7 days by agar tube dilution method; type: functional, organism-based
Nigrospora oryzae = test: Antifungal activity against Nigrospora oryzae after 7 days by agar tube dilution method; type: functional, organism-based

SMILES	MIC (Pleurotus ostreatus) [mg/L]	MIC (Epidermophyton floccosum) [mg/L]	MIC (Scedosporium boydii) [mg/L]	MIC (Aspergillus niger) [mg/L]	Activity [1]	Activity (Stachybotrys chartarum)	Activity (Nigrospora oryzae)
C=C1C[C@@]23C(=O)C(=O)[C@@H]4[C@@]5(C)C[C@H](OC(C)=O)C[C@@]46[C@@H]2C[C@@H]1C(=O)[C@@H]3[C@H]6N(C)C5 [VILMORRIANONE]	175 (≈ 440 µM)	225 (≈ 566 µM)	150 (≈ 377 µM)	100 (≈ 252 µM)			
C=C1C[C@@]23CC(=O)[C@@H]4[C@@]5(C)C[C@H](OC(C)=O)C[C@@]46[C@@H]2C[C@@H]1C(=O)[C@@H]3[C@H]6N(C)C5 [PANICUTINE]	125 (≈ 326 µM)	200 (≈ 522 µM)	75 (≈ 196 µM)	125 (≈ 326 µM)	Active	Active	Active
CCN1C[C@]2(C)CC[C@H](OC)[C@@]34[C@@H]5C[C@@H]6CC[C@](OC(C)=O)([C@@H](C[C@H]23)[C@@H]14)[C@H]5C(=O)O6	150 (≈ 359 µM)	250 (≈ 599 µM)	100 (≈ 239 µM)	200 (≈ 479 µM)			
